Source: the NIST ThermoML archive (doi:10.1016/j.jct.2015.10.009)
± gives the expanded uncertainty stated by the source.

Columns and labels:
[1] = Liquid; for vapor or sublimation pressure: Closed cell (Static) method
[2] = refractive index (Na D-line) (dimensionless); conditions: 298.15 K; 101.33 kPa; Liquid; Standard Abbe refractometry

## O=C=O [carbon dioxide]
[1]; 272.78 K
  vapor or sublimation pressure: 3476 ± 11 kPa
[1]; 277.83 K
  vapor or sublimation pressure: 3958 ± 12 kPa
[1]; 282.87 K
  vapor or sublimation pressure: 4487 ± 13 kPa
[1]; 287.92 K
  vapor or sublimation pressure: 5069 ± 13 kPa
[1]; 292.95 K
  vapor or sublimation pressure: 5705 ± 14 kPa
[1]; 297.99 K
  vapor or sublimation pressure: 6404 ± 16 kPa
[1]; 303.03 K
  vapor or sublimation pressure: 7176 ± 17 kPa

## CCCCCC [hexane]
[2]
  refractive index: 1.3724 ± 0.0004
[1]; 298.15 K, 101.33 kPa, Vibrating tube method
  mass density: 655.241 ± 0.26 kg/m3

## FC(F)F [trifluoromethane]
[1]; 267.81 K
  vapor or sublimation pressure: 2176 ± 9 kPa
[1]; 272.86 K
  vapor or sublimation pressure: 2497 ± 9 kPa
[1]; 277.9 K
  vapor or sublimation pressure: 2881 ± 10 kPa
[1]; 282.96 K
  vapor or sublimation pressure: 3269 ± 10 kPa
[1]; 287.99 K
  vapor or sublimation pressure: 3707 ± 11 kPa
[1]; 292.02 K
  vapor or sublimation pressure: 4084 ± 11 kPa
[1]; 293.04 K
  vapor or sublimation pressure: 4180 ± 12 kPa
[1]; 297.07 K
  vapor or sublimation pressure: 4605 ± 12 kPa
